This series is described as follows: log P by HPLC. The format is physicochemical. The settings on record: HPLC, gradient method, acetonitrile/0.1% aqueous phosphoric acid; EEC directive 79/831 Annex V. A8.
In the case of `COCCNc1c(-c2ccc(F)cc2Cl)c(Cl)nc2nc(C3CC3)nn12` [compound 616], the logP – broadly, a log measure of how a compound divides between an organic and an aqueous phase – is reported as 3.07.

The compound `CC1CCCCN1c1c(-c2ccc(F)cc2Cl)c(Cl)nc2nc(C3CC3)nn12` (stereo not drawn) [compound 617] returned a log partition coefficient (logP) of 4.72. In turn, `CC1CCN(c2c(-c3ccc(F)cc3Cl)c(Cl)nc3nc(C4CC4)nn23)CC1` [compound 618] gave a logP of 4.82. Take `CN(C)Nc1c(-c2ccc(F)cc2Cl)c(Cl)nc2nc(C3CC3)nn12` [compound 619]: the logP stood at 3.29. Regarding `CC(NNc1c(-c2ccc(F)cc2Cl)c(Cl)nc2nc(C3CC3)nn12)C1CC1` (stereo not drawn) [compound 620], the logP is given as 3.81. With `CC(C)CNc1c(-c2ccc(F)cc2Cl)c(Cl)nc2nc(C3CC3)nn12` [compound 621], the logP stood at 3.9. In the case of `CC(C)(C)CNc1c(-c2ccc(F)cc2Cl)c(Cl)nc2nc(C3CC3)nn12` [compound 622], the logP is reported as 4.37. `CCC(C)Nc1c(-c2ccc(F)cc2Cl)c(Cl)nc2nc(C3CC3)nn12` (stereo not drawn) [compound 623] displayed a logP of 3.9. In the case of `Fc1ccc(-c2c(Cl)nc3nc(C4CC4)nn3c2NC2CCCC2)c(Cl)c1` [compound 624], the logP turned out to be 4.13. The compound `Fc1ccc(-c2c(Cl)nc3nc(C4CC4)nn3c2NCC2CC2)c(Cl)c1` [compound 625] had a logP of 3.63.

`C=C(C)CNc1c(-c2ccc(F)cc2Cl)c(Cl)nc2nc(C3CC3)nn12` [compound 626] displayed a logP of 3.59. This logP and that of the compound before are within 0.2 log units of each other.

In the case of `CC(C)CN(C)c1c(-c2ccc(F)cc2Cl)c(Cl)nc2nc(C3CC3)nn12` [compound 627], the logP amounted to 4.51. `COCCN(C)c1c(-c2ccc(F)cc2Cl)c(Cl)nc2nc(C3CC3)nn12` [compound 628] yielded a logP of 3.46. Turning to `C=C(C)CN(C)c1c(-c2ccc(F)cc2Cl)c(Cl)nc2nc(C3CC3)nn12` [compound 629], the logP was found to be 4.41. In turn, `C=C(C)CN(CC)c1c(-c2ccc(F)cc2Cl)c(Cl)nc2nc(C3CC3)nn12` [compound 630] showed a logP of 4.77.

`CCN(CCOC)c1c(-c2ccc(F)cc2Cl)c(Cl)nc2nc(C3CC3)nn12` [compound 631] gave a logP of 3.81. `CCN(CC)c1c(-c2ccc(F)cc2Cl)c(Cl)nc2nc(C3CC3)nn12` [compound 632] yielded a log partition coefficient (logP) of 4.13. The compound `Fc1ccc(-c2c(Cl)nc3nc(C4CC4)nn3c2N2CCCC2)c(Cl)c1` [compound 634] registered a logP of 3.72. In the case of `Fc1ccc(-c2c(Cl)nc3nc(C4CC4)nn3c2N2CCCCC2)c(Cl)c1` [compound 635], the logP came to 4.37. `Fc1ccc(-c2c(Cl)nc3nc(C4CC4)nn3c2N2CCOCC2)c(Cl)c1` [compound 636] showed a logP of 3.18.

The compound `CC(C)CC(C)Nc1c(-c2ccc(F)cc2Cl)c(Cl)nc2nc(C3CC3)nn12` (stereo not drawn) [compound 637] had a logP of 4.61. The compound `Fc1ccc(-c2c(Cl)nc3nc(C4CC4)nn3c2NCC(F)(F)F)c(Cl)c1` [compound 638] gave a logP of 3.37. As for `Fc1ccc(-c2c(Cl)nc3nc(C4CC4)nn3c2N2CCCC2C(F)(F)F)c(Cl)c1` (stereo not drawn) [compound 639], the figure is 4.23; as for `C=C(C)CN(CC)c1c(-c2ccc(F)cc2Cl)c(Cl)nc2nc(C)nn12` [compound 643], 4.06; as for `CC(C)CNc1c(-c2ccc(F)cc2F)c(Cl)nc2nc(C3CC3)nn12` [compound 644], 3.38.

For the compound `CCCCNc1c(-c2ccc(F)cc2F)c(Cl)nc2nc(C3CC3)nn12` [compound 645], the logP worked out at 3.6. With `CC(C)(C)CNc1c(-c2ccc(F)cc2F)c(Cl)nc2nc(C3CC3)nn12` [compound 646] the figure was 4; with `CCC(C)Nc1c(-c2ccc(F)cc2F)c(Cl)nc2nc(C3CC3)nn12` (stereo not drawn) [compound 647], 3.57; with `Fc1ccc(-c2c(Cl)nc3nc(C4CC4)nn3c2NCCC(F)(F)F)c(F)c1` [compound 648], 3.25.

With `CCCNc1c(-c2ccc(F)cc2F)c(Cl)nc2nc(C3CC3)nn12` [compound 649], the logP is on record as 3.2. Compound `Fc1ccc(-c2c(Cl)nc3nc(C4CC4)nn3c2NC2CCCC2)c(F)c1` [compound 650] yielded a log partition coefficient (logP) of 3.76. In turn, `CC(C)Nc1c(-c2ccc(F)cc2F)c(Cl)nc2nc(C3CC3)nn12` [compound 651] yielded a logP of 3.2. The compound `Fc1ccc(-c2c(Cl)nc3nc(C4CC4)nn3c2NC2CCCCC2)c(F)c1` [compound 652] came in with a logP of 4.02. In turn, `CC(Nc1c(-c2ccc(F)cc2F)c(Cl)nc2nc(C3CC3)nn12)C1CCCCC1` (stereo not drawn) [compound 653] showed a lipophilicity (logP) of 4.84. Compound `COCCNc1c(-c2ccc(F)cc2F)c(Cl)nc2nc(C3CC3)nn12` [compound 654] gave a logP of 2.75. With `Fc1ccc(-c2c(Cl)nc3nc(C4CC4)nn3c2NC2CC2)c(F)c1` [compound 655] the figure was 2.95. With `Fc1ccc(-c2c(Cl)nc3nc(C4CC4)nn3c2NCC2CC2)c(F)c1` [compound 656] the figure was 3.26; with `C=C(C)CNc1c(-c2ccc(F)cc2F)c(Cl)nc2nc(C3CC3)nn12` [compound 657], 3.22; with `Fc1ccc(-c2c(Cl)nc3nc(C4CC4)nn3c2NC2CCCC(C(F)(F)F)C2)c(F)c1` (stereo not drawn) [compound 658], 3.98.

With `Fc1ccc(-c2c(Cl)nc3nc(C4CC4)nn3c2NC2CCC(C(F)(F)F)CC2)c(F)c1` (stereo not drawn) [compound 659], the logP was 3.93. With `CC(C)CC(C)Nc1c(-c2ccc(F)cc2F)c(Cl)nc2nc(C3CC3)nn12` (stereo not drawn) [compound 660], the logP is listed as 4.24. Consider `CN(C)CCN(C)c1c(-c2ccc(F)cc2F)c(Cl)nc2nc(C3CC3)nn12` [compound 661], for which the logP was 1.56. With `C#CCN(C)c1c(-c2ccc(F)cc2F)c(Cl)nc2nc(C3CC3)nn12` [compound 662], the logP amounted to 3.21.

As for `CN(CC1OCCO1)c1c(-c2ccc(F)cc2F)c(Cl)nc2nc(C3CC3)nn12` [compound 663], the logP worked out at 3.1. `C=CCN(C)c1c(-c2ccc(F)cc2F)c(Cl)nc2nc(C3CC3)nn12` [compound 664] displayed a logP of 3.61.

In turn, `CN(C)CCCN(C)c1c(-c2ccc(F)cc2F)c(Cl)nc2nc(C3CC3)nn12` [compound 665] showed a logP of 1.61. As for `COC(CN(C)c1c(-c2ccc(F)cc2F)c(Cl)nc2nc(C3CC3)nn12)OC` [compound 666], the lipophilicity (logP) was 3.24. `CN(Cc1ccco1)c1c(-c2ccc(F)cc2F)c(Cl)nc2nc(C3CC3)nn12` [compound 667] displayed a logP of 3.63.

`CC(C)CN(C)c1c(-c2ccc(F)cc2F)c(Cl)nc2nc(C3CC3)nn12` [compound 668] gave a logP of 4.07.

`COCCN(C)c1c(-c2ccc(F)cc2F)c(Cl)nc2nc(C3CC3)nn12` [compound 669] returned a logP of 3.16.

As for `C=C(C)CN(C)c1c(-c2ccc(F)cc2F)c(Cl)nc2nc(C3CC3)nn12` [compound 670], the logP amounted to 4.05. In the case of `CCCCN(C)c1c(-c2ccc(F)cc2F)c(Cl)nc2nc(C3CC3)nn12` [compound 671], the logP was 4.21. With `Fc1cc(F)c(-c2c(Cl)nc3nc(C4CC4)nn3c2NCC(F)(F)F)c(F)c1` [compound 672] the figure was 3.25. As for `CC1CCCCN1c1c(-c2c(F)cc(F)cc2F)c(Cl)nc2nc(C3CC3)nn12` (stereo not drawn) [compound 674], the figure is 4.6.

Take `Fc1cc(F)c(-c2c(Cl)nc3nc(C4CC4)nn3c2N2CCC(F)CC2)c(F)c1` [compound 675]: the logP was 3.68. Regarding `CC(C)CN(C)c1c(-c2c(F)cccc2F)c(Cl)nc2nc(C3CC3)nn12` [compound 676], the logP is 4.08. For the compound `C=C(C)CN(C)c1c(-c2c(F)cccc2F)c(Cl)nc2nc(C3CC3)nn12` [compound 677], the logP is 3.98.

On to `CC1CCCN1c1c(-c2c(F)cccc2F)c(Cl)nc2nc(C3CC3)nn12` (stereo not drawn) [compound 678], for which the logP worked out at 3.68. With `Fc1cccc(F)c1-c1c(Cl)nc2nc(C3CC3)nn2c1N1CCCC1` [compound 679] the figure was 3.25; with `CC1CCCCN1c1c(-c2c(F)cccc2F)c(Cl)nc2nc(C3CC3)nn12` (stereo not drawn) [compound 680], 3.17; with `CC1CCN(c2c(-c3c(F)cccc3F)c(Cl)nc3nc(C4CC4)nn23)CC1` [compound 681], 4.34. `Fc1cccc(F)c1-c1c(Cl)nc2nc(C3CC3)nn2c1N1CCCCC1` [compound 682] gave a logP of 3.9. Compound `Fc1cccc(F)c1-c1c(Cl)nc2nc(C3CC3)nn2c1N1CCOCC1` [compound 683] showed a logP of 2.78. As to `Cc1nc2nc(Cl)c(-c3c(F)cccc3F)c(NC(C)C(C)C)n2n1` (stereo not drawn) [compound 684], the logP worked out at 3.18. Turning to `Cc1nc2nc(Cl)c(-c3c(F)cccc3F)c(NC(C)C(C)(C)C)n2n1` (stereo not drawn) [compound 685], the logP worked out at 3.56.

Compound `Cc1nc2nc(Cl)c(-c3c(F)cc(F)cc3F)c(N3OCCCC3C)n2n1` (stereo not drawn) [compound 686] returned a logP of 3.42.

On to `CCNc1c(-c2ccc(F)cc2F)c(Cl)nc2nc(C)nn12` [compound 687], for which the logP is listed as 3.08. For the compound `Cc1nc2nc(Cl)c(-c3c(F)cccc3Cl)c(NC(C)C(C)C)n2n1` (stereo not drawn) [compound 688], the logP is recorded as 3.43. With `Fc1ccc(-c2c(Cl)nc3nc(C4CC4)nn3c2N2CCCCO2)c(F)c1` [compound 690] the figure was 3.56; with `Cc1nc2nc(Cl)c(-c3ccc(F)cc3Cl)c(N3CCCCN3)n2n1` [compound 691], 2.94. With `Cc1nc2nc(Cl)c(-c3c(F)cc(F)cc3F)c(N3CCCCN3)n2n1` [compound 692] the figure was 2.83; with `Cc1nc2nc(Cl)c(-c3ccc(F)cc3F)c(N3OCCC3C)n2n1` (stereo not drawn) [compound 695], 2.79; with `Cc1nc2nc(Cl)c(-c3ccccc3Cl)c(NC(C)C(C)C)n2n1` (stereo not drawn) [compound 696], 3.46. `Cc1nc2nc(Cl)c(-c3ccc(F)cc3Cl)c(NCC(F)F)n2n1` [compound 697] gave a logP of 2.54. Regarding `CC(C)CN(C)c1c(-c2c(F)cccc2Cl)c(Cl)nc2nc(C3CC3)nn12` [compound 698], the logP came out at 4.32.
